{"source": "patent US20140248291A1", "about": "“Modulation of Cellular Migration” (THE UAB RESEARCH FOUNDATION, priority 2011, published 2014)", "key": {"rat B1 BK receptor": {"target": "T1, rat B1 BK receptor (Rattus norvegicus, UniProt P97583)", "T1 sequence (P97583 1-337)": "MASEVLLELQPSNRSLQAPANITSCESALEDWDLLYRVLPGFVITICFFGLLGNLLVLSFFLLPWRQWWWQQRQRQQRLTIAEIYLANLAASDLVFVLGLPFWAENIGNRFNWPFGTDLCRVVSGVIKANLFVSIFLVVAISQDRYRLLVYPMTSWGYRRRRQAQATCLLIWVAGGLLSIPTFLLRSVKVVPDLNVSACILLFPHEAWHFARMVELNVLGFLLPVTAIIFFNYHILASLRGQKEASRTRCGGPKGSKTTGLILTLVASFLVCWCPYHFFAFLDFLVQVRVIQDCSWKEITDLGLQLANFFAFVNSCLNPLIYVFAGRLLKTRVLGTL", "conditions": "cited from earlier work"}, "[1]": {"system": "BK-induced hypotension and plasma extravasation", "conditions": "in vivo; cited from earlier work"}, "human B1 BK receptor": {"target": "T2, human B1 BK receptor (Homo sapiens, UniProt P46663)", "T2 sequence (P46663 1-353)": "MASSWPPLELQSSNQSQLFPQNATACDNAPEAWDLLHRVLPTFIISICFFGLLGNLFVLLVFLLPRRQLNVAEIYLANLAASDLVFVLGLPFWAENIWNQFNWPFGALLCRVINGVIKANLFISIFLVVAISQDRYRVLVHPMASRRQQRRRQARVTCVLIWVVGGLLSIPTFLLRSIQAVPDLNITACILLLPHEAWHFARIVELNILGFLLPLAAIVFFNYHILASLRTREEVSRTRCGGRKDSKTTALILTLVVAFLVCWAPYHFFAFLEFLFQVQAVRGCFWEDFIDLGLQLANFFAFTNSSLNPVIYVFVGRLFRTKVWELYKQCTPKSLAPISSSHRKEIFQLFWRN", "conditions": "cited from earlier work"}, "D54-MG-GFP cells": {"system": "D54-MG-GFP cells", "experiment": "slice invasion assay, acute rat brain slices", "type": "cell-based, human", "protocol": "Experiments were performed on male and female Sprague-Dawley rats and were approved by the University of Alabama Institutional Animal Care and Use Committee. 17-22 days old pups were decapitated. Meninges were stripped, brain was taken out and put in ice-cold bath ACSF. Tissue was sliced using Vibrotome 3000 sectioning system. 300 μm thick slices were let recover in ACSF for 1 hour at room temperature, followed by recovery in ACSF at 37° C. in […] for 1 hour. CD31 antibody (BD Biosciences, Pharminogen, San Diego, Calif.) that labels blood vessels was added during the latter recovery period. Slices were then transferred into transwell migration cell culture inserts (BD Biosciences, San Jose, Calif.) with 8 μm pores that were pretreated with Vitronectin and blocked as described above. 50,000 D54-EGFP MG cells were then seeded on top of the slices and allowed to migrate/invade into the tissue for 2 hours at 37° C. During that period, slices were treated with 1 μM BK, 1 μM BK+5 μM HOE-140 or 5 μM HOE-140 added to the bottom of migration chamber in order to create a concentration gradient, similar to in vitro migration/invasion assay (FIG. 5C). In control experiments, drug treatment was omitted. Following double washes with PBS, slices were fixed in 4% paraformaldehyde overnight at 4° C. The following day, samples were washed three times with PBS and the slices were mounted between two coverslips for imaging on an Olympus Fluoview confocal microscope with 60× objective.\nHaving established a dependence of migration and BK in vitro, the role of BK signaling in brain slices was examined, where the presence of neurons, glia and endothelial cells resemble the complex environment more reminiscent of the actual invasions of glioma cells in the human brain. To this end, acute brain slices of rat cortex, that can be maintained viable for many hours of investigation, were incubated with CD31 antibody to label blood vessels and seeded with D54-MG-GFP cells. Cells were allowed to migrate and invade for 2 hours in presence or absence of BK and in presence or absence of B2R antagonist HOE-140. The experimental set-up is illustrated in FIG. 5C. Representative confocal images of glioma cells invading into the slice in the presence of BK with and without antagonist HOE-140 added are shown in FIG. 5A, a, A, b and A, c. […] Similarly, most of the cells remained on the slices when treated only with B2R antagonist, as depicted in 40 μm cross-section in FIG. 5A, f. Data were analyzed by counting the number of glioma cells that attached to blood vessels in the presence of BK (77.4±4.1%, 391 cells analyzed), BK and antagonist HOE-140 (19.3±3.4%, 461 cells analyzed) or antagonist HOE-140 (42.7±4.2%, 452 cells analyzed) and compared with control (53.5±6.3%, 403 cells analyzed) where no drugs were added. […] Another important effect observed was that the glioma cells were invading deeper into the tissue in the presence of BK when compared to controls."}, "BK": {"target": "BK (Homo sapiens, UniProt P30411)", "sequence (P30411 whole entry, species assumed)": "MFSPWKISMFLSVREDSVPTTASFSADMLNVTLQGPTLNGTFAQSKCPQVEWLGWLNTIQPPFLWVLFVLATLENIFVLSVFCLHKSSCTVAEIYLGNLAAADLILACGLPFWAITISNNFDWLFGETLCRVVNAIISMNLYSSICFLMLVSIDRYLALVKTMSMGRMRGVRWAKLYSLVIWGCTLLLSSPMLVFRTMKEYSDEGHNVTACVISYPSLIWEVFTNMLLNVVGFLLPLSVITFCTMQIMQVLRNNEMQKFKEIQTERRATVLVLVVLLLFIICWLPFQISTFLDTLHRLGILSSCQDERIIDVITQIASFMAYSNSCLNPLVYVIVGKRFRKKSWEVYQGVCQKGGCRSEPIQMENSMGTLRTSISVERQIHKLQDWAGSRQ", "conditions": "cited from earlier work"}}}
{"smiles": "CN(C)CCN(C)CCNC(=O)[C@@H]1CCCN1S(=O)(=O)c1ccc(NNC(=S)NC(c2ccccc2)c2ccccc2)c([N+](=O)[O-])c1", "note": "[Bradyzide]", "values": [{"measurement": "interaction with rat B1 BK receptor", "setting": "rat B1 BK receptor", "result": "does not interact"}, {"measurement": "BK-induced hypotension", "setting": "[1]", "result": "blocks"}, {"measurement": "BK-induced plasma extravasation", "setting": "[1]", "result": "blocks"}, {"measurement": "interaction with human B1 BK receptor", "setting": "human B1 BK receptor", "result": "does not interact"}]}
{"smiles": "N=C(N)NCCCC(NC(=O)[C@H](N)CCCNC(=N)N)C(=O)N1CCC[C@H]1C(=O)N1C[C@H](O)C[C@H]1C(=O)NCC(=O)N[C@@H](Cc1cccs1)C(=O)N[C@@H](CO)C(=O)N1Cc2ccccc2C[C@@H]1C(=O)N1C2CCCCC2C[C@H]1C(=O)N[C@H](CCCNC(=N)N)C(=O)O", "note": "(stereo partly drawn) [HOE-140, D-Arg-[Hyp^3, Thi^5, D-Tic^7, Oic^8]bradykinin]", "values": [{"measurement": "glioma cells attached to blood vessels", "setting": "D54-MG-GFP cells; 1 μM BK + 5 μM HOE-140, 2 h, 461 cells analyzed", "result": "19.3±3.4", "unit": "%"}, {"measurement": "glioma cells attached to blood vessels", "setting": "D54-MG-GFP cells; 5 μM HOE-140 alone, 2 h, 452 cells analyzed", "result": "42.7±4.2", "unit": "%"}, {"measurement": "cells migrated up to 15 μm", "setting": "D54-MG-GFP cells; HOE-140 alone", "result": 29.8, "unit": "%"}, {"measurement": "cells migrated up to 20 μm", "setting": "D54-MG-GFP cells; HOE-140 alone", "result": 14.4, "unit": "%"}, {"measurement": "cells migrated up to 25 μm", "setting": "D54-MG-GFP cells; HOE-140 alone", "result": 3.5, "unit": "%"}, {"measurement": "cells on top of the slice", "setting": "D54-MG-GFP cells; HOE-140 alone", "result": 51.9, "unit": "%"}, {"measurement": "cells migrated up to 15 μm", "setting": "D54-MG-GFP cells; HOE-140 in addition to BK", "result": 25.7, "unit": "%"}, {"measurement": "cells migrated up to 20 μm", "setting": "D54-MG-GFP cells; HOE-140 in addition to BK", "result": 15.4, "unit": "%"}, {"measurement": "cells migrated up to 25 μm", "setting": "D54-MG-GFP cells; HOE-140 in addition to BK", "result": 6.4, "unit": "%"}, {"measurement": "cells remained on the top of the slice", "setting": "D54-MG-GFP cells; HOE-140 in addition to BK", "result": 47.5, "unit": "%"}, {"measurement": "potency relative to D-Arg-[Hyp^2, Thi^5,8, D-Phe^7]BK", "setting": "BK", "result": "two to three orders of magnitude more potency"}]}
